Test results taken from ChEMBL document CHEMBL3425406, “Design, Synthesis, and Evaluation of Tetrasubstituted Pyridines as Potent 5-HT2C Receptor Agonists” (ACS Med Chem Lett, 2015).

Experiments:
MDR1 [1] = assay: Apparent permeability across apical to basolateral side in MDCK cells expressing MDR1; type: ADME, cell-based, Canis lupus familiaris; details: dog
[2] = target: T1, 5-hydroxytryptamine receptor 2B (Homo sapiens, UniProt P41595); assay: Agonist activity at human recombinant 5-HT2B receptor expressed in CHOK1 cells assessed as induction of Ca2+ mobilization after 1 hr by FLIPR assay; type: functional, cell-based, CHO-K1
[3] = target: T1, 5-hydroxytryptamine receptor 2B; assay: Agonist activity at human recombinant 5-HT2B receptor expressed in CHOK1 cells assessed as induction of Ca2+ mobilization at 30 uM after 1 hr by FLIPR assay relative to 5-HT; type: functional, cell-based; details: CHO-K1
[4] = Lipophilicity, log D of the compound; type: physicochemical; details: octanol/water
[5] = Permeability across dog RRCK cells; type: ADME, cell-based, Canis lupus familiaris, MDCKII-LE; details: MDCK, read-out: permeability
MDR1 [6] = assay: Efflux ratio of apparent permeability across basolateral to apical over apical to basolateral side in MDCK cells expressing MDR1; type: ADME, cell-based, Canis lupus familiaris; details: dog
[7] = target: T1, 5-hydroxytryptamine receptor 2B; assay: Inhibition of Cy3B conjugated serotonin analogue binding to human recombinant 5-HT2B receptor expressed in CHOK1 cells after 60 mins by fluorescence polarization assay; type: cell-based; details: CHO-K1

T1 sequence (P41595 whole entry): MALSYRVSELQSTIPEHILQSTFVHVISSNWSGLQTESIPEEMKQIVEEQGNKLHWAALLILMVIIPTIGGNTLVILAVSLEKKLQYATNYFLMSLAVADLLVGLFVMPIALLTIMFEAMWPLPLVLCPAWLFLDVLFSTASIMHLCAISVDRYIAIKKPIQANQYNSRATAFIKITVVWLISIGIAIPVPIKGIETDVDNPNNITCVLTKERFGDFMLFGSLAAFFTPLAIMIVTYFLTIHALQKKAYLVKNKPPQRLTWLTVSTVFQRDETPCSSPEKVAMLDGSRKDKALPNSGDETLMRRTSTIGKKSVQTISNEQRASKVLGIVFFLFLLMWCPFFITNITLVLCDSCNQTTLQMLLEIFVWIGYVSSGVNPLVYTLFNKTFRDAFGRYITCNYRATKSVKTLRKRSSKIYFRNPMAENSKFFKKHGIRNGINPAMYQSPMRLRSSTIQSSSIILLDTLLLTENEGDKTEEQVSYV

SMILES	Papp A→B (MDR1 [1])	EC50 [2]	Emax [3]	logD [4]	Papp [5]	efflux ratio (MDR1 [6])	Kb [7]
c1ccc(CNc2nc(Cc3ccccc3)cc3c2CCNCC3)cc1	0.6 ×10⁻⁶ cm/s			1.7	2 ×10⁻⁶ cm/s	3.6	121 nM
CNc1nc(Cc2ccccc2)cc2c1CCNCC2	2.5 ×10⁻⁶ cm/s	1480 nM	69%	0.4	8 ×10⁻⁶ cm/s	2.8	
CC(C)Nc1nc(Cc2ccccc2)cc2c1CCNCC2		33 nM	32%	1	12 ×10⁻⁶ cm/s		
CC(C)CNc1nc(Cc2ccccc2)cc2c1CCNCC2				1.7			

Second part, the compound after the results:

Papp A→B (MDR1 [1])	EC50 [2]	Emax [3]	logD [4]	Papp [5]	efflux ratio (MDR1 [6])	Kb [7]	SMILES
1.5 ×10⁻⁶ cm/s	27 nM	38%	1	4 ×10⁻⁶ cm/s	3.5		CCCNc1nc(Cc2ccccc2)cc2c1CCNCC2
0.8 ×10⁻⁶ cm/s	22 nM	51%	1.2	2 ×10⁻⁶ cm/s	6.1		c1ccc(Cc2cc3c(c(NCC4CC4)n2)CCNCC3)cc1
1.8 ×10⁻⁶ cm/s	18 nM	28%	0.6	7 ×10⁻⁶ cm/s	2.3		CCNc1nc(Cc2ccccc2)cc2c1CCNCC2
3.9 ×10⁻⁶ cm/s	27 nM	53%	0.5	18 ×10⁻⁶ cm/s	1.5		c1ccc(Cc2cc3c(cn2)CCNCC3)cc1
2.1 ×10⁻⁶ cm/s	30 nM	38%	0.6	8 ×10⁻⁶ cm/s	2.2		CN(C)c1nc(Cc2ccccc2)cc2c1CCNCC2
